The test system of the test is human whole blood. The format is cell-based.

Read-outs that look alike come from different tables or passages of the source.

Description: One or more samples of human whole blood were collected by a licensed medical doctor from a healthy volunteer known to refrain from the taking of anticoagulant medications such as, for example, aspirin. Written informed consent of the donors was collected under an approved protocol from the Internal Review Board at the UT Health Science Center. Human whole blood was collected, by antecubital venipuncture, into vials 12 containing the anticoagulant sodium citrate (3.8%, applied at a 9:1 blood to citrate ratio).
Embodiments of the apparatus 10 of the present invention may also be used to characterize clot contraction. […] The test volume was 27 μL; however, to ensure filling of the test chamber and complete immersion within the blood sample 50 of the wetted portion 24/plate 15 of the probe 20 disposed within the vial 15, a volume of 250 μL of blood was injected into a vial 15 comprising glass. Data recording began once the wetted portion 24/plate 15 was lowered into position such that it was immersed within the blood sample 50 and was 1 mm away from the lower member 50, both of which comprised acrylic. Deflection of the wire portion 21 of the probe 20 typically began after 360 to 480 seconds, and data collection was concluded after 3,600 seconds (1 hour).

For the molecule `C=C1[C@@H](C)[C@H]2[C@H](Cc3ccccc3)NC(=O)[C@]23[C@H](OC(C)=O)/C=C/[C@@](C)(O)C(=O)[C@@H](C)C/C=C/[C@H]3[C@@H]1O` [cytochalasin D], the contraction force entry (increasing concentrations in human whole blood) is “dose-dependent decrease”.

Regarding `c1nnn[nH]1` [tetrazole], the contraction force entry is, setting by setting: (1 mMol in human whole blood, FIG. 41) “enhanced contraction force”; (60 mMol in human whole blood, FIG. 41) “reduced contraction force”.

For the origin of these results see patent US12339274B2, “Blood coagulometer and method” (priority 2016, dated 2025).
